In ChEMBL document CHEMBL1201862, “PubChem BioAssay data set” (2004):
The source made the active and inactive calls.

Tests used:
[1] = target: T1, Sentrin-specific protease 8 (Homo sapiens, UniProt Q96LD8); type: functional
T1 sequence (Q96LD8 whole entry): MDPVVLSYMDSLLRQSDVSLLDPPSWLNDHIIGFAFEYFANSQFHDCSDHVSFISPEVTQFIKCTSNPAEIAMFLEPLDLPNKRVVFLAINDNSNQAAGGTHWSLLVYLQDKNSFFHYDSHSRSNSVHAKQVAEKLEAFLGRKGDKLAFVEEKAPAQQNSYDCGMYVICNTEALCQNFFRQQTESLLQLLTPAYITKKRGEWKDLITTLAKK

[2] = target: T1, Sentrin-specific protease 8; type: functional; remark: listed apart in the source
[3] = target: T2, Ubiquitin-conjugating enzyme E2 N (Homo sapiens, UniProt P61088); type: functional;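 further: Dose-response confirmation in a TR-FRET assay detecting UBC13-driven polyubiquitin chain formation, inhibition measured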
T2 sequence (P61088 whole entry): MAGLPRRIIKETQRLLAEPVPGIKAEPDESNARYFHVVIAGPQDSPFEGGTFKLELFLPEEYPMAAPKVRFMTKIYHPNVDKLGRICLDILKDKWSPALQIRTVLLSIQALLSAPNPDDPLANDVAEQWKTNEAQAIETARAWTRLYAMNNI

[4] = HEp-2 cell cytotoxicity, dose response, cytotoxicity control for RSV inhibitor project, HTS (AID 2410); type: functional; conditions: human respiratory syncytial virus
[5] = target: Glucose-6-phosphate 1-dehydrogenase (Homo sapiens, UniProt P11413); experiment: human G6PD enzyme inhibitors, dose response, selectivity assay for P. falciparum G6PD inhibitor project, biochemical, fluorescence (AID 504792); type: functional
Chain of Glucose-6-phosphate 1-dehydrogenase (P11413 whole entry, the tested form may be a part): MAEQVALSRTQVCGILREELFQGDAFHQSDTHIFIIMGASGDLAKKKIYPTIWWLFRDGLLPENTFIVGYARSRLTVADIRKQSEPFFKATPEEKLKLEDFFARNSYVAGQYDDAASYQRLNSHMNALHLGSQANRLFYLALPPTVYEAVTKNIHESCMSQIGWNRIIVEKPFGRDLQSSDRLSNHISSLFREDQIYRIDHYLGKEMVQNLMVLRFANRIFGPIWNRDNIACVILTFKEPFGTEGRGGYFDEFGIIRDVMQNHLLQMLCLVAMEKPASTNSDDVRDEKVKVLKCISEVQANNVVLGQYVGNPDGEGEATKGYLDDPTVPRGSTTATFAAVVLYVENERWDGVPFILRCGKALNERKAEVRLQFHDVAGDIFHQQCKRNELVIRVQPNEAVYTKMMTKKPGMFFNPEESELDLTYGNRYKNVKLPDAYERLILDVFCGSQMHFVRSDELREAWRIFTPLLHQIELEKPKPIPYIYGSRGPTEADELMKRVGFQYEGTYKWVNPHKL

[6] = target: T3, Nucleotide-binding oligomerization domain-containing protein 1 (Homo sapiens, UniProt Q9Y239); experiment: NOD1 signaling inhibitors, SAR follow-up, revised (AID 2333); type: functional
T3 sequence (Q9Y239 whole entry): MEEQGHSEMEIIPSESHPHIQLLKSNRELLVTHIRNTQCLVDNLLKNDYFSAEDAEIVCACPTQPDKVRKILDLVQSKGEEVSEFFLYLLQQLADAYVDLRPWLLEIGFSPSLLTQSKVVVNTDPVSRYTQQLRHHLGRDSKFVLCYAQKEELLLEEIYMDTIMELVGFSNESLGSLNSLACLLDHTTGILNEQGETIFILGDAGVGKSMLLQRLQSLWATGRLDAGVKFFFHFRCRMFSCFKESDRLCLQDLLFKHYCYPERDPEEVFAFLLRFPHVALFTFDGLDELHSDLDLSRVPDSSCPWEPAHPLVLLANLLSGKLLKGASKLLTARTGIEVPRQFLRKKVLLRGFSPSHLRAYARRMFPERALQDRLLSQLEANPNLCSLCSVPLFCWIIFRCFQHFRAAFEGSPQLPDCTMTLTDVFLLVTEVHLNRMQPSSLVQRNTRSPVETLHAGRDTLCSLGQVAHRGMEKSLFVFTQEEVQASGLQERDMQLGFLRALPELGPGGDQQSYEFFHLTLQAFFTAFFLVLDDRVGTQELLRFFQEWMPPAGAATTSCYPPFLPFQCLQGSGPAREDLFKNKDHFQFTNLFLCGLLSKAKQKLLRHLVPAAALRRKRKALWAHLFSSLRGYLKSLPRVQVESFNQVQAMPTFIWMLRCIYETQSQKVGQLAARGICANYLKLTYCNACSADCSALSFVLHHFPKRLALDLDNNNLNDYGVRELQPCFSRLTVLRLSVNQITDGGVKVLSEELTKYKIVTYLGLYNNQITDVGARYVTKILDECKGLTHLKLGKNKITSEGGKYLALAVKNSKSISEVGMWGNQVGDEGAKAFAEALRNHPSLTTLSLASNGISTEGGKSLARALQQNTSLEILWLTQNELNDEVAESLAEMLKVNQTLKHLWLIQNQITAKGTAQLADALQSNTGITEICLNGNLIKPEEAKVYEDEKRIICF

HEK293 [7] = experiment: cells; type: functional, cell-based; conditions: Homo sapiens
Tumor necrosis factor = Tumor necrosis factor (Homo sapiens, UniProt P01375); experiment: TNFa-triggered NF-kB activation inhibitors, SAR follow-up, cell-based, revised (AID 2337); type: functional
Chain of Tumor necrosis factor (P01375 whole entry): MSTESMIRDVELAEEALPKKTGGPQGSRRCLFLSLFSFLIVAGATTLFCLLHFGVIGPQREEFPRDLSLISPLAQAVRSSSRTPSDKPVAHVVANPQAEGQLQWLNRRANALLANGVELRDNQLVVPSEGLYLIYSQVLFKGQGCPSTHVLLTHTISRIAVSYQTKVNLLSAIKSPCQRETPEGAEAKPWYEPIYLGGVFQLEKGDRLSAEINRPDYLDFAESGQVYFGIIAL

HEK293 [8] = experiment: NOD2 signaling inhibitors in MDP-stimulated cells, cell-based, uHTS, luminescence (AID 2001); type: functional; conditions: Homo sapiens
HEK293 [9] = experiment: cells; type: functional, cell-based; conditions: Homo sapiens; remark: listed apart in the source
HEK293 [10] = experiment: cells; conditions: Homo sapiens
HEK293 [11] = experiment: NOD1 signaling inhibitors, primary screen, cell-based, luminescence, uHTS (AID 1578); type: functional; conditions: Homo sapiens
[12] = target: Heat shock protein HSP 90-alpha (Homo sapiens, UniProt P07900); type: functional, organism-based
Vero = experiment: cells; type: functional; conditions: Chlorocebus sabaeus
[13] = target: T4, Microphthalmia-associated transcription factor (Homo sapiens, UniProt O75030); experiment: TRPM1 promoter luciferase signal decrease, dose response, MITF inhibitor project, cell-based, SK-MEL-5, cherry-picked, set 3 (AID 493073); type: functional
T4 sequence (O75030 whole entry): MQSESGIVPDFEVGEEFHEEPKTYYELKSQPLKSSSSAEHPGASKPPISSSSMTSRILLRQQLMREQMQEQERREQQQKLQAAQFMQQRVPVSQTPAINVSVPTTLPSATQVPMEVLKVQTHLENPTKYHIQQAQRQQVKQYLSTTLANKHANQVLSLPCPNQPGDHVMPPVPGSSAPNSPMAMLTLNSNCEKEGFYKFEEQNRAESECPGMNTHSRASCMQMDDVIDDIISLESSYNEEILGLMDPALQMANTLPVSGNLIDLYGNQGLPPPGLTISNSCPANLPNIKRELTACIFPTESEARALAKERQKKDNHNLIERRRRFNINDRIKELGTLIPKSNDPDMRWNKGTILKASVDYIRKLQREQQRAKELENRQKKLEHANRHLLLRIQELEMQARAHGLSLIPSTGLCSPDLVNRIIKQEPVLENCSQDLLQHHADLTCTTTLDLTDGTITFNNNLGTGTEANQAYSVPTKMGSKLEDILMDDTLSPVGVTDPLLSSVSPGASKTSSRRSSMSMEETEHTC

[14] = miR-122 activators in hepatoma reporter cells, dose response, cell-based, Huh7 psiCHECK-miR122, Renilla luciferase, cherry-picked (AID 651956); type: functional;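 further: huh7 hepatoma cells stably carrying a psiCHECK-2 miR-122 sensor plasmid; renilla luciferase signal reporting endogenous miR-122 activity after 48 h compound exposure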
[15] = target: T5, Heat shock factor protein 1 (Mus musculus, UniProt P38532); experiment: inhibition of MG132-induced HSE-luciferase signal, confirmation, cell-based, NIH3T3, luminescence, dose retest (AID 2382); type: functional;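 further: NIH3T3 fibroblasts with HSF1-driven luciferase reporter stressed by proteasome inhibitor MG132; luminescence from HSF1-driven luciferase expression after 8 hours of MG132 stress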
T5 sequence (P38532 whole entry): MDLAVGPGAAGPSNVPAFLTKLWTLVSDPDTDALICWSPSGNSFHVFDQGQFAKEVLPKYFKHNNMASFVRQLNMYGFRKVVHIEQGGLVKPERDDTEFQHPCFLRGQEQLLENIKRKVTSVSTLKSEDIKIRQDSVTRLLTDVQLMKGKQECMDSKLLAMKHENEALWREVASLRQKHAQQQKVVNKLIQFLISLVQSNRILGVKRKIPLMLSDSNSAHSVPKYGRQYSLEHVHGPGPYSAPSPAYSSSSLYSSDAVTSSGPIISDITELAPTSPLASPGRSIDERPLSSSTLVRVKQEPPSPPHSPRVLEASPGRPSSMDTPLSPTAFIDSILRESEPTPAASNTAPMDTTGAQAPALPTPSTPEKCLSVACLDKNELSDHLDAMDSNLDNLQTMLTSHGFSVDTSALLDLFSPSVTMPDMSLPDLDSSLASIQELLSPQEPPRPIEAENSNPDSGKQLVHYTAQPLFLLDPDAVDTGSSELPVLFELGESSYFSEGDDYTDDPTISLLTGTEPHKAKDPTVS

[16] = target: T6, Corticotropin-releasing factor receptor 2/Corticotropin-releasing factor-binding protein (Homo sapiens, UniProt P24387+Q13324); experiment: Dose Response confirmation of uHTS hits for small molecule antagonists of the CRF-binding protein and CRF-R2 receptor complex.; type: functional; conditions: read-out: IC50_Mean
T6 sequence (Q13324 whole entry): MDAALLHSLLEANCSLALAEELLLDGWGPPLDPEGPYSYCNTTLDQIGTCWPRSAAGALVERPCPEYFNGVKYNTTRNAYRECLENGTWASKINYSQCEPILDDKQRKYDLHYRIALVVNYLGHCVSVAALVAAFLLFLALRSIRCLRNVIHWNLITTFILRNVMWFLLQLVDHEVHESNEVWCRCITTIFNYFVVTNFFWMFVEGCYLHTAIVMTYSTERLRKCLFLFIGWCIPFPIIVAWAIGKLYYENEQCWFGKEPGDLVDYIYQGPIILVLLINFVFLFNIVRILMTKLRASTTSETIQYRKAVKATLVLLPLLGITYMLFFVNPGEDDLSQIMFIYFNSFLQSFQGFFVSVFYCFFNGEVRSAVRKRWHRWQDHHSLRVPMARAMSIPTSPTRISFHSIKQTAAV
T6 sequence (P24387 whole entry): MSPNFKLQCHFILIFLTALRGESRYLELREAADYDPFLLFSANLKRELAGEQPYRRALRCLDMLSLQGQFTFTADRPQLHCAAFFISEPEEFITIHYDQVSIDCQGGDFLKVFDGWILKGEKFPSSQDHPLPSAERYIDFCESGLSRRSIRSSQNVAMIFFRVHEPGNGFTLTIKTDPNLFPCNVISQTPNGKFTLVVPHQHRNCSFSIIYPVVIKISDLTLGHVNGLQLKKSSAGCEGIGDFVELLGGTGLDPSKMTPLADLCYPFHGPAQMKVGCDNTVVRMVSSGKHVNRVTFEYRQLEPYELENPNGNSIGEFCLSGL

[17] = target: T6, Corticotropin-releasing factor receptor 2/Corticotropin-releasing factor-binding protein; experiment: activators of CRF receptor 2 with binding protein – uHTS hits, confirmation (AID 602473); type: functional; conditions: read-out: EC50_Mean
[18] = cytotoxicity toward NIH3T3 fibroblasts, dose response, counter-screen, cell-based, ATP luminescence, mouse fibroblasts (AID 2010); type: functional;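 further: cells exposed to compound for about 90 hours before reading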
[19] = inhibitors of intracellular T. cruzi replication, confirmation, NIH3T3 host cells, beta-gal luminescence (AID 2044); type: functional, cell-based;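 further: intracellular parasites grown in NIH/3T3 mouse fibroblasts as host cells; luminescent beta-galactosidase reporter signal from transgenic T. cruzi replicating inside host cells; inhibitors lower the luminescence signal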
cells = type: functional
[20] = microbe, parasite or virus in culture; type: functional; conditions: Mycobacterium tuberculosis
[21] = HepG2 cell cytotoxicity, dose response, cytotoxicity control for Shn3 inhibitor project, CellTiter-Glo, cherry-picked (AID 624134); type: functional, cell-based
[22] = Shn3 3'UTR reporter inhibitors, dose response, cell-based, Clone20 osteoblasts, firefly luciferase, cherry-picked (AID 624132); type: functional;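 further: firefly luciferase luminescence from reporter carrying the Shn3 3'UTR in osteoblasts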
[23] = control 3'UTR Renilla luciferase suppression, dose response, counter-screen for Shn3 inhibitor project, cell-based, Clone20-Shn3RL, cherry-picked (AID 624133); type: functional

Cc1ccc(C)c(N/C([S-])=C(/C(=O)c2ccc(Cl)s2)[n+]2ccccc2)c1
IC50 [1]: 5.82 µM (active)
IC50 [2]: 9.94 µM (active)

COc1ccc(S(=O)(=O)N2CCN(c3ccc4nnc(-c5ccccc5)n4n3)CC2)cc1
IC50 [3]: > 20 µM (inactive)
CC50 [4]: > 50 µM (active)

COC(=O)CCCC1=CC2=CC(=O)C(C)(OC(=O)c3cccs3)C(=O)C2=CN1CCCCO (stereo unspecified)
IC50 [1]: 5.99 µM (active)
IC50 [2]: 7.79 µM (active)

CCn1c(=O)n(CC)c2cc(N3CCCC3)c(NC(=O)c3cccc(C)c3)cc21
IC50 [5]: > 80 µM (inactive)

COc1ccc(CNS(=O)(=O)c2ccc3c(c2)CC(C)N3C(=O)C2CC2)cc1 (stereo unspecified)
IC50 [6]: 13.1 µM (active)
IC50 (HEK293 [7]): 14.8 µM (active)
IC50 (Tumor necrosis factor): > 20 µM (inactive)
IC50 (HEK293 [8]): 12.5 µM (inactive)
IC50 (HEK293 [9]): 7.96 µM (active)
IC50 (HEK293 [10]): > 20 µM (inactive)
EC50 (HEK293 [11]): 3.88 µM (active)

CCOc1cccc(C=NN=C(S)Nc2ccccc2[N+](=O)[O-])c1O
IC50 [6]: 8.23 µM (active)
IC50 (Tumor necrosis factor): 0.414 µM (active)
IC50 (HEK293 [10]): > 20 µM (inactive)

O=[N+]([O-])/C=C\c1ccc(N2CCCC2)c(F)c1
AC50 [12]: 8.22 µM (active)
CC50 (Vero): 18.6 µM (active)
AC50 [13]: 13.4 µM (active)

COc1ccccc1CN1CCC(CNS(=O)(=O)c2cc(-c3cc(C)no3)ccc2OC)CC1
CC50 (Vero): > 25 µM (active)

CCOc1ccccc1NC(=O)CCCc1nc(O)c2ccccc2n1
IC50 [5]: 71.7 µM (inactive)

O=C(CNCCC1=CCCCC1)Nc1ccccc1N1CCCCCC1
AC50 [14]: 2.54 µM (active)

Cc1ccc2c(c1)C1CN(C)CCC1N2C(=O)Nc1cccc(C(F)(F)F)c1 (stereo unspecified)
CC50 (Vero): > 25 µM (active)
EC50 [15]: > 195 µM (not active)

COC(=O)c1c(NC(=O)C=Cc2cccs2)sc2c1CCC(C)C2 (stereo unspecified)
IC50 [6]: 9.46 µM (active)
IC50 (Tumor necrosis factor): 5.68 µM (active)
IC50 (HEK293 [10]): > 20 µM (inactive)

CCNc1cc2c(cc1O)CCC1C2CCC2(C)C(O)CCC12 (stereo unspecified)
IC50 [5]: > 80 µM (inactive)

C/C=C/c1ccc2c(c1)O[C@H](CN(C)C(=O)Cc1cccnc1)[C@H](C)CN([C@H](C)CO)S2(=O)=O
AC50 [14]: 10.7 µM (active)

CNC(=O)C[C@@H]1CC[C@@H]2[C@@H](COc3ccc(NC(=O)c4cccc(OC)c4)cc3C(=O)N2C)O1
AC50 [14]: 67.7 µM (active)

COc1ccc(Cl)cc1Nc1nc(NCCO)nc(N2CCCCC2)n1
IC50 [3]: > 20 µM (inactive)
IC50 [16]: > 47.1 µM (inactive)
EC50 [17]: > 53 µM (inactive)

O=C(Nc1ccccc1N1CCCC1)c1ccc([N+](=O)[O-])o1
EC50 [18]: 13.5 µM (active)
IC50 [1]: 66.9 µM (inactive)
EC50 [19]: 0.105 µM (active)
IC50 [2]: 31.3 µM (active)

CCOc1ccc2ccccc2c1/C=N/NC(=O)c1ccncc1
IC50 (cells): 0.21 µM (active)
IC50 [5]: 27.1 µM (inactive)

COC1=CC(=O)C=C(OC)C1(O)CC(C)=O
IC50 [5]: 54.3 µM (inactive)

Oc1ccccc1Nc1nc(NCc2ccccc2)c2ccccc2n1
IC50 [3]: > 20 µM (inactive)
CC50 [20]: 23.9 µM (active)
AC50 [21]: 52.7 µM (active)
AC50 [22]: 10.7 µM (active)
AC50 [23]: 5.63 µM (active)
